According to ChEMBL document CHEMBL3763150, “New antibacterial isocoumarin glycosides from a wetland soil derived fungal strain Metarhizium anisopliae” (2016):
In brackets after ≈: the same amount, converted by molar mass. Activity calls are given as the source filed them. No cut-off for these calls is given here.

How the values were obtained:
Pseudomonas aeruginosa [1] = assay: Antibacterial activity against clinical isolates of Pseudomonas aeruginosa PAOA incubated for 20 hrs by two fold dilution method; format: functional
Pseudomonas aeruginosa [2] = assay: Antibiofilm activity against clinical isolates of Pseudomonas aeruginosa PAOA at 16 to 64 ug/ml incubated for 20 hrs by crystal violet staining based spectrophotometric analysis; format: functional, organism-based
Pseudomonas aeruginosa [3] = assay: Antibacterial activity against clinical isolates of Pseudomonas aeruginosa PAOA assessed as inhibition of pyocyanine secretion at 64 ug/ml; format: functional, organism-based
Pseudomonas aeruginosa [4] = assay: Antibacterial activity against clinical isolates of Pseudomonas aeruginosa PAOA assessed as inhibition of rhamnolipid secretion at 64 ug/ml; format: functional, organism-based
Pseudomonas aeruginosa [5] = assay: Antibacterial activity against clinical isolates of Pseudomonas aeruginosa PAOA assessed as inhibition of rhamnolipid secretion at 32 ug/ml; format: functional, organism-based

MIC (Pseudomonas aeruginosa [1])	Compound	other results
> 128 µg/mL	C/C=C/CC[C@H]1Cc2cc(O[C@@H]3O[C@H](CO)[C@@H](OC)[C@H](O)[C@H]3O)cc(O)c2C(=O)O1	
128 µg/mL (≈ 504 µM)	O=C1C=C(Br)/C(=C/Br)O1	Activity (Pseudomonas aeruginosa [2]): Active; inhibition (Pseudomonas aeruginosa [5]): Active
> 128 µg/mL	C/C=C/C=C/[C@H]1Cc2cc(O[C@@H]3O[C@H](CO)[C@@H](OC)[C@H](O)[C@H]3O)cc(O)c2C(=O)O1	

Continued, compound first:

Compound	MIC (Pseudomonas aeruginosa [1])	other results
C/C=C/CC[C@H]1Cc2cc(O[C@@H]3O[C@H](COC(C)=O)[C@@H](OC)[C@H](O)[C@H]3O)c(OC)c(O)c2C(=O)O1	> 128 µg/mL	Activity (Pseudomonas aeruginosa [2]): Active; inhibition (Pseudomonas aeruginosa [3]): Active; inhibition (Pseudomonas aeruginosa [4]): Active; inhibition (Pseudomonas aeruginosa [5]): Active
C/C=C/C=C/[C@H]1Cc2cc(O[C@@H]3O[C@H](CO)[C@@H](OC)[C@H](O)[C@H]3O)c(OC)c(O)c2C(=O)O1	> 128 µg/mL	
C/C=C/CC[C@H]1Cc2cc(O)c(O[C@@H]3O[C@H](CO)[C@@H](OC)[C@H](O)[C@H]3O)c(O)c2C(=O)O1	> 128 µg/mL	
C/C=C/CC[C@H]1Cc2c(O)c(O[C@@H]3O[C@H](CO)[C@@H](OC)[C@H](O)[C@H]3O)cc(O)c2C(=O)O1	> 128 µg/mL	
C/C=C/CC[C@H]1Cc2cc(O[C@@H]3O[C@H](CO)[C@@H](OC)[C@H](O)[C@H]3O)c(OC)c(O)c2C(=O)O1	> 128 µg/mL	
C/C=C/CCc1cc2cc(O[C@@H]3O[C@H](CO)[C@@H](OC)[C@H](O)[C@H]3O)c(OC)c(O)c2c(=O)o1	> 128 µg/mL	
